Drawing on US6685617B1, “Inhibitors of α4β1 mediated cell adhesion” (Pharmacia & Upjohn Company, priority 1998, dated 2004), this text covers IC50 for 28 molecules.

pIC50: −log10 of the molar value. Structures can show the parent of a compound that is named as a salt.

In test [1] the target is T1, α4β1 integrin (Jurkat cell adhesion to immobilized CS-1 derived peptide CLHPGEILDVPST) (Homo sapiens, UniProt P05556+P13612).
T1 construct: 100 μl of Jurkat cells (2.5×10^6 cells/ml) in DMEM plus BSA; host or cells: Jurkat T-cell line
T1 sequence (P13612 34-1032): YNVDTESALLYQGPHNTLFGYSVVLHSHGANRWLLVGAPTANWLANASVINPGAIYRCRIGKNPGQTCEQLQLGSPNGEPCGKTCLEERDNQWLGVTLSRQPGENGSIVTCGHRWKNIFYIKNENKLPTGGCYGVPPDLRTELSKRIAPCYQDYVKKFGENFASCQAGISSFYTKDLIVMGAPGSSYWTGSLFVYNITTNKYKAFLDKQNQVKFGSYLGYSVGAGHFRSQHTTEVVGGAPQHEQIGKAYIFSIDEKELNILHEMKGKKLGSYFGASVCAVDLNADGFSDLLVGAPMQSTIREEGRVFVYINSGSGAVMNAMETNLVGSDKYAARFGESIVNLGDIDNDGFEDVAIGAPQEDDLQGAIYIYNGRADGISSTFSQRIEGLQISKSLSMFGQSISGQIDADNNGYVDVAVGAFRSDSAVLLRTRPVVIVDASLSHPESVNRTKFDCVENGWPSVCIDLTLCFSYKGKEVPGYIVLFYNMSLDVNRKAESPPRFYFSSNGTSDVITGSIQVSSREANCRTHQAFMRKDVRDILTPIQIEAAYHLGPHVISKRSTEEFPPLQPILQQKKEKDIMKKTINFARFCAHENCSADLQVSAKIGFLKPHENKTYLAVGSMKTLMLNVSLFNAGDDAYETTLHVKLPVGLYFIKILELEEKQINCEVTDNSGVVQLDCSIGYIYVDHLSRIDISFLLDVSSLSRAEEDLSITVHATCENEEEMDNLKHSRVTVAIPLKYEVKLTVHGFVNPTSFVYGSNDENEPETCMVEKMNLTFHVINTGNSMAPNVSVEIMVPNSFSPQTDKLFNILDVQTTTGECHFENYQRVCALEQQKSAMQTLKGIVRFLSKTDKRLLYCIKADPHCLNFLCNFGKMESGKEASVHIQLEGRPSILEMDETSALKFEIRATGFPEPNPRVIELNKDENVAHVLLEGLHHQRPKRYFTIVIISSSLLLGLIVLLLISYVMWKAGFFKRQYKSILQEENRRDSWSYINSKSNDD
T1 sequence (P05556 21-798): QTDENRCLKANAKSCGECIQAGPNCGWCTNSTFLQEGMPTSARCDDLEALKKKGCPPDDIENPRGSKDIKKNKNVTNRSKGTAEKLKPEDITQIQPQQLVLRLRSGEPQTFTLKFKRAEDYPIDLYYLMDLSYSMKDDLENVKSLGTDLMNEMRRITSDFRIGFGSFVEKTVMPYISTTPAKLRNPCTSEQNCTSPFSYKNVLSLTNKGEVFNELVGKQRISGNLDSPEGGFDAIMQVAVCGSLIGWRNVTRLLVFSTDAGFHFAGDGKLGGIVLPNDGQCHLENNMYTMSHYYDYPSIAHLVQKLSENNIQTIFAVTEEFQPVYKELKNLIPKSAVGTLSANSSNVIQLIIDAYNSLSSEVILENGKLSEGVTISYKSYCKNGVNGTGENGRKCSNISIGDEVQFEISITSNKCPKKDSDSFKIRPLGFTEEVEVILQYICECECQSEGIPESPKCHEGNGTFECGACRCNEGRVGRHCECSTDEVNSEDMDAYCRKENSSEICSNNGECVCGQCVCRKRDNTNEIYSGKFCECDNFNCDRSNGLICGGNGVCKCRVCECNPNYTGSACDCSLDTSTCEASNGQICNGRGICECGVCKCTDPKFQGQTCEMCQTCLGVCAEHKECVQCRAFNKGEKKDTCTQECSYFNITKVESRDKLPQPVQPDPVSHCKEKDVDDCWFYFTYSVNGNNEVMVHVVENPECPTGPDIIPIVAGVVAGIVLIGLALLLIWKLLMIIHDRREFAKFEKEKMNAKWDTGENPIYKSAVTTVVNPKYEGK
Kind of test: Jurkat-CS-1 assay. The following applies: Jurkat cells on CS-1 peptide coated plates; read-out: JK/CS-1 (Jurkat CS-1 Assay IC50 value range). Format: cell-based. The method in brief:
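CS-1 peptide was SPDP-crosslinked onto HSA-coated plates and blocked with BSA. Jurkat cells (2.5×10^6 cells/ml) in DMEM/BSA were mixed with compound, generally at 100, 20, 5 and 1.25 μM, and allowed to adhere for 1 hr at 37° C. Bound cells were fixed, stained with toluidine blue and quantified by OD590.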

For test [2], the target named is T2, α4β1 integrin (Jurkat T-cell adhesion to IL-1 stimulated endothelial cell monolayers) (Homo sapiens, UniProt P05556+P13612).
T2 construct: a T-cell line, Jurkat, known to express the α4β1 integrin; host or cells: Jurkat T-cell line
T2 sequence (P13612 34-1032): as the sequence (P13612 34-1032) above
T2 sequence (P05556 21-798): as the sequence (P05556 21-798) above
Kind of test: Jurkat-endothelial cell adhesion assay (Jurkat EC). Format: cell-based. The conditions noted are these: Jurkat cells on IL-1 stimulated human umbilical vein endothelial cells; read-out: JK/EC (Jurkat EC Assay IC50 value range). The method in brief:
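BCECF-AM-labelled Jurkat cells were mixed with compound, generally 100, 20, 5 and 1.25 μM, and added to HUVEC monolayers (passage ≤6) pre-stimulated 4 hr at 37° C with 0.1 ng/ml IL-1. After 5 min on ice and 20 min at 37° C, washed wells were read by fluorescence as % adhesion relative to no compound.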

Regarding `COC(=O)[C@H](Cc1ccc(NC(=O)c2c(Cl)cccc2Cl)cc1)NC(=O)[C@H]1CSCN1S(=O)(=O)c1ccc(C(F)(F)F)cn1` [Example 44, 4-[(2,6-Dichlorobenzoyl)amino]-N-[[(4S)-3-[[5-(trifluoromethyl)-2-pyridinyl]sulfonyl]-4-thiazolidinyl]carbonyl]-L-phenylalanine Methyl Ester], the pIC50 in test [1] is at most 6.12; in test [2], at most 6.00.
As for `O=C(Nc1ccc(C[C@H](NC(=O)[C@H]2CSCN2S(=O)(=O)c2ccc(C(F)(F)F)cn2)C(=O)O)cc1)c1c(Cl)cccc1Cl` [Example 45], the results for the pIC50 in test [1] and in test [2] were 6.12 to 7.30 and 6.00 to 6.60, respectively.
As to `COC(=O)[C@H](Cc1ccc(NC(=O)c2c(Cl)cccc2Cl)cc1)NC(=O)[C@H]1CSCN1S(=O)(=O)c1ccccc1` [Example 46, 4-[(2,6-Dichlorobenzoyl)amino]-N-[[(4S)-3-(phenylsulfonyl)-4-thiazolidinyl]carbonyl]-L-phenylalanine Methyl Ester], the pIC50 is at most 6.12 in test [1] and at most 6.00 in test [2].
In the same order, the values of `O=C(Nc1ccc(C[C@H](NC(=O)[C@H]2CSCN2S(=O)(=O)c2ccccc2)C(=O)O)cc1)c1c(Cl)cccc1Cl` [Example 47] are at least 7.30 and at least 6.60.
Consider `COC(=O)[C@H](Cc1ccc(NC(=O)c2c(Cl)cccc2Cl)cc1)NC(=O)[C@H]1CSCN1S(=O)(=O)c1cccc2c(N(C)C)cccc12` [Example 48, 4-[(2,6-Dichlorobenzoyl)amino]-N-[[(4S)-3-[[5-(dimethylamino)-1-naphthalenyl]sulfonyl]-4-thiazolidinyl]carbonyl]-L-phenylalanine Methyl Ester], for which the pIC50 in test [1] is at most 6.12; in test [2] it was at most 6.00.
For `CN(C)c1cccc2c(S(=O)(=O)N3CSC[C@@H]3C(=O)N[C@@H](Cc3ccc(NC(=O)c4c(Cl)cccc4Cl)cc3)C(=O)O)cccc12` [Example 49, 4-[(2,6-Dichlorobenzoyl)amino]-N-[[(4S)-3-[[5-(dimethylamino)-1-naphthalenyl]sulfonyl]-4-thiazolidinyl]carbonyl]-L-phenylalanine] the same measures were at most 6.12 and at most 6.00.
In the same order, the values of `COC(=O)[C@H](Cc1ccc(OCc2c(Cl)cccc2Cl)cc1)NC(=O)[C@H]1CSCN1S(C)(=O)=O` [Example 50, O-[(2,6-Dichlorophenyl)methyl]-N-[[(4S)-3-(methylsulfonyl)-4-thiazolidinyl]carbonyl]-L-tyrosine Methyl Ester] are 6.12 to 7.30 and at most 6.00.
For `CS(=O)(=O)N1CSC[C@@H]1C(=O)N[C@@H](Cc1ccc(OCc2c(Cl)cccc2Cl)cc1)C(=O)O` [Example 51, O-[(2,6-Dichlorophenyl)methyl]-N-[[(4S)-3-(methylsulfonyl)-4-thiazolidinyl]carbonyl]-L-tyrosine] the same measures were 6.12 to 7.30 and 6.00 to 6.60.
As for `CC(C)(C)NC(=O)N1CSC[C@@H]1C(=O)N[C@@H](Cc1ccc(NC(=O)c2c(Cl)cccc2Cl)cc1)C(=O)O` [Example 52, 4-[(2,6-Dichlorobenzoyl)amino]-N-[[(4S)-3-[[(1,1-dimethylethyl)amino]carbonyl]-4-thiazolidinyl]carbonyl]-L-phenylalanine], the pIC50 in test [1] was 6.12 to 7.30; in test [2] it was at least 6.60.
In the same order, the values of `CCN(CC)C(=O)N1CSC[C@@H]1C(=O)N[C@@H](Cc1ccc(NC(=O)c2c(Cl)cccc2Cl)cc1)C(=O)O` [Example 53, 4-[(2,6-Dichlorobenzoyl)amino]-N-[[(4S)-3-[(diethylamino)carbonyl]-4-thiazolidinyl]carbonyl]-L-phenylalanine] are at least 7.30 and at least 6.60.
As to `CN(CCc1ccccn1)C(=O)N1CSC[C@@H]1C(=O)N[C@@H](Cc1ccc(NC(=O)c2c(Cl)cccc2Cl)cc1)C(=O)O` [Example 55, 4-[(2,6-Dichlorobenzoyl)amino]-N-[[(4S)-3-[[methyl[2-(2-pyridinyl)ethyl]amino]carbonyl]-4-thiazolidinyl]carbonyl]-L-phenylalanine], the pIC50 in test [1] is at least 7.30; in test [2], at least 6.60.
In the same order, the values of `O=C(Nc1ccc(C[C@H](NC(=O)[C@H]2CSCN2C(=O)N(CCO)CCO)C(=O)O)cc1)c1c(Cl)cccc1Cl` [Example 58, N-[[(4S)-3-[[bis(2-Hydroxyethyl)amino]carbonyl]thiazoldinyl]carbonyl]-4-[(2,6-dichlorobenzoyl)amino]-L-phenylalanine] are at least 7.30 and at least 6.60.
For `COC(=O)[C@H](Cc1ccc(NC(=O)c2c(Cl)cccc2Cl)cc1)NC(=O)[C@H]1CSCN1C(C)=O` [Example 61, N-[[(4S)-3-Acetyl-4-thiazolidinyl]carbonyl]-4-[(2,6-dichlorobenzoyl)amino]-L-phenylalanine Methyl Ester] the same measures were 6.12 to 7.30 and 6.00 to 6.60.
With `CC(=O)N1CSC[C@@H]1C(=O)N[C@@H](Cc1ccc(NC(=O)c2c(Cl)cccc2Cl)cc1)C(=O)O` [Example 62, N-[[(4S)-3-Acetyl-4-thiazolidinyl]carbonyl]-4-[(2,6-dichlorobenzoyl)amino]-L-phenylalanine], the pIC50 was at least 7.30 in test [1] and at least 6.60 in test [2].
In the same order, the values of `COC(=O)[C@H](Cc1ccc(OCc2c(Cl)cccc2Cl)cc1)NC(=O)[C@H]1CSCN1C(C)=O` [Example 65, N-[[(4S)-3-Acetyl-4-thiazolidinyl]carbonyl]-O-[(2,6-dichlorophenyl)methyl]-L-tyrosine Methyl Ester] are 6.12 to 7.30 and at most 6.00.
For `CC(=O)N1CSC[C@@H]1C(=O)N[C@@H](Cc1ccc(OCc2c(Cl)cccc2Cl)cc1)C(=O)O` [Example 66, N-[[(4S)-3-Acetyl-4-thiazolidinyl]carbonyl]-O-[(2,6-dichlorophenyl)methyl]-L-tyrosine] the same measures were 6.12 to 7.30 and at least 6.60.
`COC(=O)[C@H](Cc1ccc(NC(=O)c2c(Cl)cccc2Cl)cc1)NC(=O)[C@@H]1CSCN1C(C)=O` [Example 69, N-[[(4R)-3-Acetyl-4-thiazolidinyl]carbonyl]-4-[(2,6-dichlorobenzoyl)amino]-L-phenylalanine Methyl Ester]: the values for the pIC50 in test [1] and in test [2] were at most 6.12 and at most 6.00, respectively.
As to `CC(=O)N1CSC[C@H]1C(=O)N[C@@H](Cc1ccc(NC(=O)c2c(Cl)cccc2Cl)cc1)C(=O)O` [Example 70, N-[[(4R)-3-Acetyl-4-thiazolidinyl]carbonyl]-4[(2,6-dichlorobenzoyl)amino]-L-phenylalanine], the pIC50 in test [1] is at least 7.30; in test [2] it was 6.00 to 6.60.
With `O=C(Nc1ccc(C[C@H](NC(=O)[C@@H]2CSCN2)C(=O)O)cc1)c1c(Cl)cccc1Cl` [Example 71, 4-[(2,6-Dichlorobenzoyl)amino]-N-[[(4R)-4-thiazolidinyl]carbonyl]-L-phenylalanine Monohydrochloride Salt], the pIC50 in test [1] was at most 6.12; in test [2] it was at most 6.00.
For `CC1(C)N[C@H](C(=O)N[C@@H](Cc2ccc(NC(=O)c3c(Cl)cccc3Cl)cc2)C(=O)O)CS1` [Example 74, 4-[(2,6-Dichlorobenzoyl)amino]-N-[[(4R)-2,2-dimethyl-4-thiazolidinyl]carbonyl]-L-phenylalanine] the same measures were 6.12 to 7.30 and 6.00 to 6.60.
For `COC(=O)[C@H](Cc1ccc(NC(=O)c2c(Cl)cccc2Cl)cc1)NC(=O)[C@H]1CSC(C)(C)N1C(C)=O` [Example 83, N-[[(4S)-3-Acetyl-2,2-dimethyl-4-thiazolidinyl]carbonyl]-4-[(2,6-dichlorobenzoyl)amino]-L-phenylalanine Methyl Ester] the same measures were 6.12 to 7.30 and at most 6.00.
In the same order, the values of `CC(=O)N1[C@@H](C(=O)N[C@@H](Cc2ccc(NC(=O)c3c(Cl)cccc3Cl)cc2)C(=O)O)CSC1(C)C` [Example 84, N-[[(4S)-3-Acetyl-2,2-dimethyl-4-thiazolidinyl]carbonyl]-4-[(2,6-dichlorobenzoyl)amino]-L-phenylalanine] are at least 7.30 and at least 6.60.
Consider `COC(=O)[C@H](Cc1ccc(NC(=O)c2c(Cl)cccc2Cl)cc1)NC(=O)[C@@H]1N(C(C)=O)C(C)(C)SC1(C)C` [Example 87, N-[[(4S)-3-Acetyl-2,2,5,5-tetramethyl-4-thiazolidinyl]carbonyl]-4-[(2,6-dichlorobenzoyl)amino]-L-phenylalanine Methyl Ester], for which the pIC50 is at most 6.12 in test [1] and at most 6.00 in test [2].
For `O=C(NO)[C@H](Cc1ccc(OCc2c(Cl)cccc2Cl)cc1)NC(=O)[C@H]1CSCN1C(=O)OCCN1CCOCC1` [Example 91] the same measures were at most 6.12 and at most 6.00.
In the same order, the values of `CCOC(=O)N1CSC[C@@H]1C(=O)N[C@@H](Cc1ccc(OCc2c(Cl)cccc2Cl)cc1)C(=O)NO` [Example 92] are at most 6.12 and at most 6.00.
Consider `O=C(NO)[C@H](Cc1ccc(OCc2c(Cl)cccc2Cl)cc1)NC(=O)[C@H]1CSCN1C(=O)OCCN1CCCCC1` [Example 93], for which the pIC50 in test [1] is at most 6.12; in test [2], at most 6.00.
Regarding `COC(=O)[C@H](Cc1ccc(NC(=O)c2c(Cl)cccc2Cl)cc1)NC(=O)[C@@H]1CSCCN1C(=O)OC(C)(C)C` [Example 96], the pIC50 in test [1] was at most 6.12; in test [2] it was at most 6.00.
In the same order, the values of `COC(=O)[C@H](Cc1ccc(NC(=O)c2c(Cl)cccc2Cl)cc1)NC(=O)[C@@H]1CSCCN1` [Example 97] are at most 6.12 and at most 6.00.
